Measurements reported in paper PMC10146204, “Inhibition of Acetylcholinesterase by Novel Lupinine Derivatives” (Molecules, 2023).
Entries after “also recorded” stand apart in the source; their conditions may differ.

Target: T1, AChE (Homo sapiens, UniProt P22303)
T1 construct: purchased Sigma-Aldrich Chemical Co
Test: biochemical
Format: biochemical
Settings: not given
Excerpt: The kit is based on an improved Ellman method, whereby thiocholine produced from AChE activity forms a yellow color with 5,5′-dithiobis(2-nitrobenzoic acid), and the intensity the color (412 nm) is proportional to the enzyme activity.

T1 sequence (P22303 32-614): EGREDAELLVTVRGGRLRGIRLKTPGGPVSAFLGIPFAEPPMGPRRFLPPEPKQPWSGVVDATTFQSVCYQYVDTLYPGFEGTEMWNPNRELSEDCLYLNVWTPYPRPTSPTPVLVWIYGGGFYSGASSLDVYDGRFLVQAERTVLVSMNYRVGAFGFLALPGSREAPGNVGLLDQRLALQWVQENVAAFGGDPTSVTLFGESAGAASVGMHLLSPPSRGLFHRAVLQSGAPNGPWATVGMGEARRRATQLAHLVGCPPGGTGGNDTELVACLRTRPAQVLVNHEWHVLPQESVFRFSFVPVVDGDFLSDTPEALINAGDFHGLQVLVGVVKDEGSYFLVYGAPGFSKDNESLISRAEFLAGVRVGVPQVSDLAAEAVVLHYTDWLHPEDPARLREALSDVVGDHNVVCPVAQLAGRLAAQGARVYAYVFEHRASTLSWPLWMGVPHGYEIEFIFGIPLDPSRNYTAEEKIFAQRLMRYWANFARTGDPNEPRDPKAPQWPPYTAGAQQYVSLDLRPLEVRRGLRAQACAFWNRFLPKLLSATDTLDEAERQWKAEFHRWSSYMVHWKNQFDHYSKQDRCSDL

| Compound | IC50 [µM] |
| --- | --- |
| O=C(CCCCl)OC[C@@H]1CCCN2CCCC[C@H]12 [Compound 22] | 39.5 ± 7.2 |
| O=C(Nc1ccc(Cl)c(Cl)c1)OC[C@@H]1CCCN2CCCC[C@H]12 [Compound 41] | 99.4 ± 12.3 |

Same assay, conditions: Experimentally determined class, Active or NA

| Compound | Observed class for AChE inhibitory activity |
| --- | --- |
| O=C(CCCCl)OC[C@@H]1CCCN2CCCC[C@H]12 [Compound 22] | Active |
| CC1(C)CC(=O)c2c(C(=O)OC[C@@H]3CCCN4CCCC[C@H]34)coc2C1 [Compound 25] | Active |

Same assay, conditions: N.A.: no activity was observed at the highest concentration tested (150 µM); 5–7 tested concentrations; read-out: AChE inhibitory activity IC50

| Compound | IC50 [µM] |
| --- | --- |
| Nc1nc(SCc2cn(C[C@@H]3CCCN4CCCC[C@H]34)nn2)n[nH]1 [Compound 5, 3-((1-(((1S,9aR)-Octahydro-1H-quinolizine-1-yl)methyl)-1H-1,2,3-triazole-4-yl)methylthio)-1H-1,2,4-triazole-5-amine] | 101 ± 23.9 |
| CCOc1cc(C=O)ccc1OCc1cn(C[C@@H]2CCCN3CCCC[C@H]23)nn1 [Compound 7, 3-Ethoxy-4-((1-(((1S,9aR)-octahydro-1H-quinolizine-1-yl)methyl)-1H-1,2,3-triazole-4-yl)methoxy)benzaldehyde] | 73.4 ± 16.7 |
| COc1cccc(-c2cn(C[C@@H]3CCCN4CCCC[C@H]34)nn2)c1 [Compound 13] | 51.8 ± 9.2 |
| COc1cc(-c2cn(C[C@@H]3CCCN4CCCC[C@H]34)nn2)ccc1OCc1ccccc1 [Compound 15, (1S,9aR)-1-((4-(4-(benzyloxy)-3-methoxyphenyl)-1H-1,2,3-triazol-1-yl)methyl)octahydro-2H-quinolizine] | 7.2 |
| CCc1cc(C(=O)OCc2cn(C[C@@H]3CCCN4CCCC[C@H]34)nn2)c(O)c(C(C)(C)C)c1 [Compound 16] | 141 ± 15.3 |
| O=Cc1ccc(OCc2cn(C[C@@H]3CCCN4CCCC[C@H]34)nn2)cc1 [Compound 17] | 68.1 ± 2.2 |
| CC1(C)CC(=O)c2c(C(=O)OC[C@@H]3CCCN4CCCC[C@H]34)coc2C1 [Compound 25] | 24.4 ± 3.4 |
| COc1ccccc1/C=C/C(=O)OC[C@@H]1CCCN2CCCC[C@H]12 [Compound 43] | 89.6 ± 7.7 |
| O=C1CC(C(=O)OC[C@@H]2CCCN3CCCC[C@H]23)C2(CCCCC2)O1 (some centres unmarked) [Compound 44] | 68.9 ± 5.8 |
| COc1cccc(/C=C/C(=O)OC[C@@H]2CCCN3CCCC[C@H]23)c1OC [Compound 49] | 111 ± 12.5 |
| Cc1cc(C)c(C(=O)OC[C@@H]2CCCN3CCCC[C@H]23)cc1C [Compound 64] | 74.1 ± 6.8 |

Same assay, conditions: double-reciprocal Lineweaver–Burk plot

| Compound | Mechanism of AChE inhibition (Lineweaver–Burk plot) |
| --- | --- |
| COc1cc(-c2cn(C[C@@H]3CCCN4CCCC[C@H]34)nn2)ccc1OCc1ccccc1 [Compound 15, (1S,9aR)-1-((4-(4-(benzyloxy)-3-methoxyphenyl)-1H-1,2,3-triazol-1-yl)methyl)octahydro-2H-quinolizine] | mixed type of inhibition; also recorded: mixed-type mechanism |

System: human THP-1 monocytic cells
Test: Cytotoxicity assay (CellTiter-Glo Luminescent Cell Viability Assay)
Format: cell-based
Settings: THP-1 cells, concentrations up to 50 μM, 24 h
Description: The cytotoxicity of the synthesized compounds was analyzed using a CellTiter-Glo Luminescent Cell Viability Assay Kit (Promega, Madison, WI, USA) according to the manufacturer’s protocol. Human THP-1 monocytic cells obtained from ATCC (Manassas, VA, USA) were cultured in RPMI 1640 medium (Mediatech Inc., Herndon, VA, USA) supplemented with 10% (v/v) FBS, 100 μg/mL streptomycin, and 100 U/mL penicillin. For the cytotoxicity assay, the cells were cultured at a density of 10^4 cells/well with different concentrations of the test compounds added ([…], 12.5, 25, 50 μM; final concentration of DMSO was 1%) for 24 h at 37 °C and 5% CO2. Following treatment, substrate was added to the cells, and the samples were analyzed with a Fluoroscan Ascent FL microplate reader.

| Compound | Cytotoxicity |
| --- | --- |
| [(1R,9aR)-octahydro-2H-quinolizin-1-yl]methane [Lupinine] | no cytotoxicity |

Target: T1, AChE
Test: not given
Settings: previously reported AChE inhibitors with a 4-benzyloxyphenyl moiety; ref [36],[37],[38]; read-out: AChE inhibitory activity IC50 of previously reported inhibitors; cited from earlier work

| Compound | IC50 [µM] |
| --- | --- |
| Cn1c(/C=N/Nc2ccc(OCc3ccccc3)cc2)nc2ccccc21 [Compound A, (E)-2-((2-(4-(benzyloxy)phenyl)hydrazineylidene)methyl)-1-methylbenzimidazole] | 11.8 |
| CCc1nnc(/N=C2\NC(=O)/C(=C\c3ccc(OCc4ccccc4)cc3)S2)s1 [Compound B, (E)-5-((E)-4-(benzyloxy)benzylidene)-2-((5-ethyl-1,3,4-thiadiazol-2-yl)imino)thiazolidin-4-one] | 1.2 |
| COc1cc(/C=C/C(=O)NCCNc2cc(C)nc3ccccc23)ccc1OCc1ccccc1 [Compound C, (E)-3-(4-(benzyloxy)-3-methoxyphenyl)-N-(2-((2-methylquinolin-4-yl)amino)ethyl)acrylamide] | 0.6 |
